Data on three compounds can be found in BindingDB's records for PubMed 33592144 (Merck, 2021).

The assay has as its target Proprotein convertase subtilisin/kexin type 9 (Homo sapiens, UniProt Q8NBP7). The experiment in a line: Inhibition of human C-terminal V5 epitope tagged PCSK9 by luciferase reporter assay. A general note: A reporter such as luciferase makes a cellular process visible.

As usually defined, the IC50 is the midpoint of a concentration-inhibition curve. Low readings indicate inhibition by little substance, high ones a need for much substance.

As for `COc1ccc(CCC(=O)N(c2nccc3ccccc23)[C@@H]2CCCNC2)cc1`, it took 4500 nM to reach half-maximal inhibition (IC50).
`O=C(c1ccc(-n2nnc3ccccc32)cc1)N(c1ncccc1Cl)[C@@H]1CCCNC1` displayed a half-maximal inhibitory concentration (IC50) of 300 nM. Against the preceding compound, the IC50 is about 15-fold lower.
In the case of `O=C(c1ccc(-c2cnn3cccnc23)cc1)N(c1ncccc1Cl)[C@@H]1CCCNC1` [US9227956, 2] it was 300 nM.
